Test [1] concerns A2058 (ATCC, CRL-11147) cells. Nature of the test: Cell viability assay (Cell Titre Glo, 72 hours) in A2058 cells. It is filed as cell-based. Conditions: Homo sapiens. On the procedure:
(§1) Example 31: Cell Viability Assays
(§2) Phthalazinone based modulators as described herein were dispensed into 384 well CulturPlates™ (PerkinElmer) using Echo 555 acoustic dispensing in 10-point dose response curves at a final top concentration of 30 μM following a 1 in 3 dilution series. A2058 (ATCC, CRL-11147) or PA1 (ECACC, 90013101) cells were added directly to a compound at a density of 5000 cells per well in a final volume of 50 μL and incubated for 72 hours at 37° C., 5% CO2. Viability was assessed using Cell Titre Glo® (Promega) according to the manufacturer's instructions (25 μL per well) and IC50 curves were generated for each inhibitor using IDBS ActivityBase data analysis software.

Test [2] relates to PA1 (ECACC, 90013101) cells. Nature of the test: Cell viability assay (Cell Titre Glo, 72 hours) in PA1 cells. It is filed as cell-based. The following applies: Homo sapiens, PA-1. Here is the method: as §1, §2

Consider `Cn1nc(C(=O)N2CCN(c3cccc(C#N)c3)CC2)c2cnccc2c1=O` [Compound 219], for which the IC50 in test [1] and in test [2] was 1 to 10 µM each time.

For `Cn1nc(C(=O)N2CCN(c3cccc4c3OC(F)(F)O4)CC2)c2ccccc2c1=O` [Compound 80], the half-maximal inhibitory concentration (IC50) in test [1] and in test [2] was not above 1 µM in each case.

`CCn1nc(C(=O)N2CCN(c3cc(OC)c(Br)cn3)CC2)c2ccccc2c1=O` [Compound 89]: the IC50 in test [1] and in test [2] was more than 20 µM throughout.

For `Cn1nc(C(=O)N2CCN(c3cncc(C(F)F)c3)CC2)c2ccccc2c1=O` [Compound 63], the IC50 in test [1] and in test [2] was more than 20 µM each time.

As for `CCn1nc(C(=O)N2CCN(c3ccccc3OC)CC2)c2ccccc2c1=O` [Compound 101], the IC50 in test [1] and in test [2] was not above 1 µM each time.

With `COc1cc(F)ccc1N1CCN(C(=O)c2nn(C)c(=O)c3cnccc23)CC1` [Compound 178], the IC50 in test [1] and in test [2] was more than 20 µM in each case.

Consider `CCn1nc(C(=O)N2CCN(c3ncc(C)cc3F)CC2)c2ccccc2c1=O` [Compound 139], for which the IC50 in test [1] and in test [2] was more than 20 µM each time.

On to `CCn1nc(C(=O)N2CCN(c3ccc(OC)nn3)CC2)c2ccccc2c1=O` [Compound 111], for which the IC50 in test [1] and in test [2] was more than 20 µM in each case.

Regarding `Cn1nc(C(=O)N2CCN(c3cc(F)cc(OC(F)(F)F)c3)CC2)c2ccccc2c1=O` [Compound 197], the IC50 in test [1] is 1 to 10 µM; in test [2] it was not above 1 µM.

Consider `COc1cc(F)cc(N2CCN(C(=O)c3nn(C)c(=O)c4cnccc34)CC2)c1` [Compound 180], for which the values for the IC50 in test [1] and in test [2] were 1 to 10 µM and not above 1 µM, respectively.

As for `Cn1nc(C(=O)N2CCN(c3cncc(Cl)c3)CC2)c2cc(F)ccc2c1=O` [Compound 165], the IC50 in test [1] and in test [2] was 1 to 10 µM throughout.

On to `Cn1nc(C(=O)N2CCN(c3ccccn3)CC2)c2ccccc2c1=O` [Compound 31], for which the IC50 in test [1] and in test [2] was more than 20 µM in each case.

On to `Cn1nc(C(=O)N2CCN(c3cc(Cl)cc(C#N)c3)CC2)c2cnccc2c1=O` [Compound 223], for which the IC50 in test [1] was 1 to 10 µM; in test [2] it was not above 1 µM.

`Cn1nc(C(=O)N2CCN(c3cccnc3)CC2)c2ccccc2c1=O` [Compound 32]: the IC50 in test [1] and in test [2] was more than 20 µM in each case.

Take `Cn1nc(C(=O)N2CCN(c3cccc(C#N)n3)CC2)c2ccccc2c1=O` [Compound 228]: the IC50 lay within 10 to 20 µM in test [1] and 1 to 10 µM in test [2].

As for `CCn1nc(C(=O)N2CCN(c3cccc(C#N)c3)CC2)c2cc(F)ccc2c1=O` [Compound 240], the IC50 in test [1] and in test [2] was not above 1 µM throughout.

Consider `CCn1nc(C(=O)N2CCN(c3ncc(F)cc3C)CC2)c2ccccc2c1=O` [Compound 87], for which the IC50 in test [1] and in test [2] was more than 20 µM each time.

As to `CCn1nc(C(=O)N2CCN(c3cccc(C#N)c3)CC2)c2ccccc2c1=O` [Compound 207], the IC50 in test [1] and in test [2] was not above 1 µM in each case.

For the molecule `CCn1nc(C(=O)N2CCN(c3cccc(C(F)(F)F)c3OC)CC2)c2ccccc2c1=O` [Compound 137], the IC50 in test [1] is more than 20 µM; in test [2] it was 10 to 20 µM.

For `Cc1ccncc1N1CCN(C(=O)c2nn(C)c(=O)c3ccc(F)cc23)CC1` [Compound 167], the concentration for half-maximal inhibition (IC50) in test [1] and in test [2] was not above 1 µM each time.

For the molecule `COc1ccncc1N1CCN(C(=O)c2nn(C)c(=O)c3ccccc23)CC1` [Compound 37], the IC50 in test [1] and in test [2] was not above 1 µM in each case.

On to `COc1cnccc1N1CCN(C(=O)c2nn(C)c(=O)c3ccccc23)CC1` [Compound 15], for which the IC50 in test [1] was 1 to 10 µM; in test [2] it was not above 1 µM.

On to `Cc1cc(N2CCN(C(=O)c3nn(C)c(=O)c4ccccc34)CC2)ccn1` [Compound 74], for which the IC50 in test [1] and in test [2] was more than 20 µM each time.

As to `COc1cccc(N2CCN(C(=O)c3nn(C)c(=O)c4cnccc34)CC2)c1` [Compound 172, 1-(4-(3-methoxyphenyl)piperazine-1-carbonyl)-3-methylpyrido[3,4-d]pyridazin-4(3H)-one], the 50% inhibitory concentration (IC50) in test [1] and in test [2] was 1 to 10 µM throughout.

Consider `COc1ncc(C)cc1N1CCN(C(=O)c2nn(C)c(=O)c3ccccc23)CC1` [Compound 77], for which the IC50 in test [1] and in test [2] was 1 to 10 µM throughout.

On to `Cc1cc(N2CCN(C(=O)c3nn(C)c(=O)c4ccccc34)CC2)ccc1F` [Compound 55], for which the IC50 was more than 20 µM in test [1] and 10 to 20 µM in test [2].

Turning to `Cn1nc(C(=O)N2CCN(c3cccc4nccn34)CC2)c2ccccc2c1=O` [Compound 231, 4-(4-(imidazo[1,2-a]pyridin-5-yl)piperazine-1-carbonyl)-2-methylphthalazin-1(2H)-one], the IC50 in test [1] and in test [2] was more than 20 µM in each case.

Regarding `Cn1nc(C(=O)N2CCN(c3ccc4c(c3)OCC4)CC2)c2ccccc2c1=O` [Compound 51], the IC50 in test [1] was more than 20 µM; in test [2], 10 to 20 µM.

For the molecule `CCn1nc(C(=O)N2CCN(c3ncccc3C(F)(F)F)CC2)c2ccccc2c1=O` [Compound 136], the IC50 in test [1] fell in the range of 10 to 20 µM; in test [2], 1 to 10 µM.

Consider `Cn1nc(C(=O)N2CCN(c3cc(F)cc(F)c3)CC2)c2ccccc2c1=O` [Compound 54], for which the IC50 in test [1] and in test [2] was not above 1 µM in each case.

Turning to `CCOc1cc(F)ccc1N1CCN(C(=O)c2nn(C)c(=O)c3ccccc23)CC1` [Compound 58], the IC50 was 1 to 10 µM in test [1] and not above 1 µM in test [2].

As for `Cc1cc(N2CCN(C(=O)c3nn(C)c(=O)c4ccc(F)cc34)CC2)ccn1` [Compound 161], the IC50 in test [1] and in test [2] was more than 20 µM in each case.

As to `CCn1nc(C(=O)N2CCN(c3cccc(OC)n3)CC2)c2ccccc2c1=O` [Compound 84], the IC50 in test [1] and in test [2] was not above 1 µM in each case.

With `CCn1nc(C(=O)N2CCN(c3cccnc3OC)CC2)c2ccccc2c1=O` [Compound 143], the 50% inhibitory concentration (IC50) in test [1] and in test [2] was not above 1 µM throughout.

For the molecule `COc1cc(F)cc(N2CCN(C(=O)c3nn(C)c(=O)c4ccccc34)CC2)c1` [Compound 34, 4-(4-(3-fluoro-5-methoxyphenyl)piperazine-1-carbonyl)-2-methylphthalazin-1(2H)-one], the IC50 in test [1] and in test [2] was not above 1 µM in each case.

Consider `Cn1nc(C(=O)N2CCN(c3ccncc3C3CC3)CC2)c2ccccc2c1=O` [Compound 71], for which the IC50 in test [1] and in test [2] was not above 1 µM throughout.

Turning to `CCn1nc(C(=O)N2CCN(c3cc(F)cc(C#N)c3)CC2)c2cc(F)ccc2c1=O` [Compound 239], the half-maximal inhibitory concentration (IC50) in test [1] and in test [2] was not above 1 µM each time.

Take `Cc1cncc(N2CCN(C(=O)c3nn(C)c(=O)c4ccccc34)CC2)c1` [Compound 73]: the IC50 in test [1] and in test [2] was 1 to 10 µM in each case.

Regarding `CCn1nc(C(=O)N2CCN(c3cccc4c3OC(C)(C)C4)CC2)c2ccccc2c1=O` [Compound 96], the values for the IC50 in test [1] and in test [2] were 1 to 10 µM and not above 1 µM, respectively.

Turning to `CCc1ccncc1N1CCN(C(=O)c2nn(C)c(=O)c3ccc(F)cc23)CC1` [Compound 166], the IC50 in test [1] and in test [2] was not above 1 µM throughout.

As for `Cn1nc(C(=O)N2CCN(c3cc(C#N)ccc3Cl)CC2)c2ccccc2c1=O` [Compound 229, 4-chloro-3-(4-(3-methyl-4-oxo-3,4-dihydrophthalazine-1-carbonyl)piperazin-1-yl)benzonitrile], the IC50 in test [1] and in test [2] was not above 1 µM each time.

As for `CCn1nc(C(=O)N2CCN(c3cncnc3C3CC3)CC2)c2ccccc2c1=O` [Compound 122], the IC50 was 1 to 10 µM in test [1] and not above 1 µM in test [2].

Turning to `COc1cc(F)cnc1N1CCN(C(=O)c2nn(C)c(=O)c3ccccc23)CC1` [Compound 13], the figures for the IC50 in test [1] and in test [2] were 10 to 20 µM and 1 to 10 µM, respectively.

As to `Cc1ccc(C#N)cc1N1CCN(C(=O)c2nn(C)c(=O)c3ccc(F)cc23)CC1` [Compound 211], the IC50 in test [1] and in test [2] was not above 1 µM each time.

Regarding `Cn1nc(C(=O)N2CCN(c3cccc(C4CC4)c3)CC2)c2ccccc2c1=O` [Compound 41], the IC50 in test [1] and in test [2] was not above 1 µM throughout.

With `Cn1nccc1N1CCN(C(=O)c2nn(C)c(=O)c3ccccc23)CC1` [Compound 227], the IC50 in test [1] and in test [2] was more than 20 µM each time.

Regarding `CCn1nc(C(=O)N2CCN(c3cccc4c3OCC4)CC2)c2ccccc2c1=O` [Compound 126], the IC50 in test [1] and in test [2] was not above 1 µM in each case.

Consider `COc1c(F)cncc1N1CCN(C(=O)c2nn(C)c(=O)c3ccc(F)cc23)CC1` [Compound 233], for which the figures for the IC50 in test [1] and in test [2] were 1 to 10 µM and not above 1 µM, respectively.

In the case of `COc1cc(Cl)ccc1N1CCN(C(=O)c2nn(C)c(=O)c3ccccc23)CC1` [Compound 57], the figures for the IC50 in test [1] and in test [2] were 1 to 10 µM and not above 1 µM, respectively.

For `CCn1nc(C(=O)N2CCN(c3cccc4oc(=O)[nH]c34)CC2)c2ccccc2c1=O` [Compound 97], the values for the IC50 in test [1] and in test [2] were more than 20 µM and 10 to 20 µM, respectively.

On to `Cc1cc(C#N)cc(N2CCN(C(=O)c3nn(C)c(=O)c4ccc(F)cc34)CC2)c1` [Compound 235], for which the IC50 in test [1] and in test [2] was not above 1 µM throughout.

As for `Cn1nc(C(=O)N2CCN(c3nccc4sccc34)CC2)c2ccccc2c1=O` [Compound 194], the concentration for half-maximal inhibition (IC50) in test [1] was 10 to 20 µM; in test [2], 1 to 10 µM.

For the molecule `CCn1nc(C(=O)N2CCN(c3cc(OC)ccn3)CC2)c2ccccc2c1=O` [Compound 85], the IC50 in test [1] and in test [2] was 1 to 10 µM throughout.

For orientation: IC50 means the concentration that gives 50% inhibition.

These data come from US12465603B2, “Phthalazinone based modulators for the treatment of disease” (Soley Therapeutics, Inc., priority 2022, dated 2025).
